The source of these data is US20240293392A1, “INHIBITOR COMPOUNDS” (NeoPhore Limited, priority 2021, published 2024).

Assay [1] deals with T1, recombinant N-terminal MLH1 (residues 15-340) (Homo sapiens, UniProt P40692).
T1 construct: recombinant N-terminal MLH1 (residues 15-340)
T1 sequence (P40692 15-340): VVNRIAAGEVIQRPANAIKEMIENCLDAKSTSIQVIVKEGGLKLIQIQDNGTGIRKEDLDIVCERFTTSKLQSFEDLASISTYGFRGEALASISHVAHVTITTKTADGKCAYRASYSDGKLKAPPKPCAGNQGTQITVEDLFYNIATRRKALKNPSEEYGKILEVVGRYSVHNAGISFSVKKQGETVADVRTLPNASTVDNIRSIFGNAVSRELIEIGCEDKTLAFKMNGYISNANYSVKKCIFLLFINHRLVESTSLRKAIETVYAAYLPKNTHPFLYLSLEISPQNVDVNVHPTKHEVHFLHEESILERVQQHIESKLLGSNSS
In words: Fluorescence Polarisation Assay for MLH1. It counts as binding. The settings on record: fluorescence polarisation probe displacement; 100 nM N-terminal MLH1, 5 nM probe compound. A digest of the protocol: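 FP displacement assay: 100 nM MLH1 (residues 15-340) preincubated 30 min at room temperature with compound in 25 mM HEPES pH 7.5, 250 mM NaCl, 10 mM MgCl2, 0.01% Triton X-100, 5 mM DTT, then 5 nM rhodamine-labelled probe added and read immediately. Data normalised to no-inhibitor and no-enzyme controls.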

The target in assay [2] is T2, recombinant N-terminal PMS2 (residues 1-365) (Homo sapiens, UniProt P54278).
T2 construct: recombinant N-terminal PMS2 (residues 1-365)
T2 sequence (P54278 1-365): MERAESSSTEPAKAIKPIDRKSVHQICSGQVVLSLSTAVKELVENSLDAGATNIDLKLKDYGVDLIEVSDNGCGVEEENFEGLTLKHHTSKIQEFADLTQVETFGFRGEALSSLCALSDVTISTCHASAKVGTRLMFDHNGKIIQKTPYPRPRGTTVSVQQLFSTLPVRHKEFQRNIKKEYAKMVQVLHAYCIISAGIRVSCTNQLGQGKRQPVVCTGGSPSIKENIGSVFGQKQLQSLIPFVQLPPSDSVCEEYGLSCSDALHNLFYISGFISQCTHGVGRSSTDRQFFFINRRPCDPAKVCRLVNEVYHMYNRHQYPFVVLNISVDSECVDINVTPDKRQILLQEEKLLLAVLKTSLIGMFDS
In words: Fluorescence Polarisation Assay for PMS2. The class given is binding. The settings on record: fluorescence polarisation probe displacement; 10 nM N-terminal PMS2, 5 nM probe compound; read-out: PMS2 IC50. Summed up: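 Competition fluorescence polarisation with 10 nM N-terminal PMS2 and 5 nM fluorescent probe (final), read after 1 h at room temperature following 30 min compound pre-incubation. Data normalised to no-inhibitor and no-enzyme controls; single-point screening or serial dilutions for potency.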

As usually defined, the IC50 is the point on the concentration scale where inhibition reaches its midpoint. With `O=C(c1c(O)cc(O)cc1OCc1ccccn1)N1Cc2cccc(NC3CCOC3)c2C1` (centres unmarked) [Example 40, (2,4-Dihydroxy-6-(pyridin-2-ylmethoxy)phenyl)(4-((tetrahydrofuran-3-yl)amino)isoindolin-2-yl)methanone], the IC50 in assay [1] is < 1000 nM; in assay [2], > 10000 nM.
On the same counts, the results for `O=C(c1c(O)cc(O)cc1OCc1ccccc1)N1CCc2cccc(N[C@H]3CCOC3)c2C1` [Example 2, (S)-(2-(Benzyloxy)-4,6-dihydroxyphenyl)(8-((tetrahydrofuran-3-yl)amino)-3,4-dihydro-isoquinolin-2(1H)-yl)methanone] are < 1000 nM and 1000 to 10000 nM.
On the same counts, the results for `COCCOc1cc2c(c(N[C@H]3CCOC3)c1)CN(C(=O)c1c(O)cc(O)cc1OCc1ccccc1)CC2` [Example 64, (S)-(2-(Benzyloxy)-4,6-dihydroxyphenyl)(6-(2-methoxyethoxy)-8-((tetrahydrofuran-3-yl)amino)-3,4-dihydroisoquinolin-2(1H)-yl)methanone] are < 1000 nM and 1000 to 10000 nM.
For `CN(C)Cc1ccc2c(c1)CN(C(=O)c1c(O)cc(O)cc1OCc1ccccc1)C2` [Example 11, (2-(Benzyloxy)-4,6-dihydroxyphenyl)(5-((dimethylamino)methyl)isoindolin-2-yl)methanone], the IC50 in assay [1] and in assay [2] was 1000 to 10000 nM each time.
`CN(c1cccc2c1CN(C(=O)c1c(O)cc(O)cc1OCc1ccccc1)CC2)C1CCOC1` (centres unmarked) [Example 143, (2-(Benzyloxy)-4,6-dihydroxyphenyl)(8-(methyl(tetrahydrofuran-3-yl)amino)-3,4-dihydroisoquinolin-2(1H)-yl)methanone]: the concentration for half-maximal inhibition (IC50) in assay [1] and in assay [2] was > 10000 nM each time.
Take `O=C(c1c(O)cc(O)cc1OCc1ccccc1)N1Cc2cccc(OCc3cncnc3)c2C1` [Example 89, (2-(Benzyloxy)-4,6-dihydroxyphenyl)(4-(pyrimidin-5-ylmethoxy)isoindolin-2-yl)methanone]: the IC50 in assay [1] and in assay [2] was < 1000 nM throughout.
As for `Cc1cccc(COc2cc(O)cc(O)c2C(=O)N2CCc3cccc(N[C@H]4CCOC4)c3C2)c1` [Example 124, (S)-(2,4-Dihydroxy-6-((3-methylbenzyl)oxy)phenyl)(8-((tetrahydrofuran-3-yl)amino)-3,4-dihydroisoquinolin-2(1H)-yl)methanone], the IC50 in assay [1] and in assay [2] was < 1000 nM in each case.
Take `O=C(c1c(O)cc(O)cc1OCc1ccccc1)N1CCc2c(cccc2NC2CCOC2)C1` (centres unmarked) [Example 27, (2-(Benzyloxy)-4,6-dihydroxyphenyl)(5-((tetrahydrofuran-3-yl)amino)-3,4-dihydroisoquinolin-2(1H)-yl)methanone]: the IC50 in assay [1] and in assay [2] was 1000 to 10000 nM throughout.
On to `CN1CCC(Nc2cccc3c2CN(C(=O)c2c(O)cc(O)cc2OCc2ccccc2)CC3)C1` (centres unmarked) [Example 78, (2-(Benzyloxy)-4,6-dihydroxyphenyl)(8-((1-methylpyrrolidin-3-yl)amino)-3,4-dihydroisoquinolin-2(1H)-yl)methanone], for which the IC50 was < 1000 nM in assay [1] and > 10000 nM in assay [2].
On the same counts, the results for `O=C(c1c(O)cc(O)cc1OCc1ccccc1)N1CCc2ccc(CNC3COC3)cc2C1` [Example 84, (2-(Benzyloxy)-4,6-dihydroxyphenyl)(7-((oxetan-3-ylamino)methyl)-3,4-dihydroisoquinolin-2(1H)-yl)methanone] are 1000 to 10000 nM and 1000 to 10000 nM.
The matching figures for `O=C(c1c(O)cc(O)cc1OCc1ccccc1)N1CCc2cccc(NC3CCCC3)c2C1` [Example 76, (2-(Benzyloxy)-4,6-dihydroxyphenyl)(8-(cyclopentylamino)-3,4-dihydroisoquinolin-2(1H)-yl)methanone]: 1000 to 10000 nM and > 10000 nM.
On the same counts, the results for `O=C(c1c(O)cc(O)cc1OCc1ccccc1)N1Cc2cccc(N[C@@H]3CCOC3)c2C1` [Example 23, (R)-(2-(Benzyloxy)-4,6-dihydroxyphenyl)(4-((tetrahydrofuran-3-yl)amino)isoindolin-2-yl)methanone] are < 1000 nM and 1000 to 10000 nM.
Regarding `O=C(c1c(O)cc(O)cc1OCc1ccccc1)N1CCc2cccc(NC3CCS(=O)(=O)C3)c2C1` (single isomer, unassigned) [Example 147a, (2-(Benzyloxy)-4,6-dihydroxyphenyl)(8-((1,1-dioxidotetrahydrothiophen-3-yl)amino)-3,4-dihydroisoquinolin-2(1H)-yl)methanone], the concentration for half-maximal inhibition (IC50) is < 1000 nM in assay [1] and > 10000 nM in assay [2].
The matching figures for `CN1CCC(Oc2cc3c(c(N[C@H]4CCOC4)c2)CN(C(=O)c2c(O)cc(O)cc2OCc2ccccc2)CC3)CC1` [Example 139, (S)-(2-(Benzyloxy)-4,6-dihydroxyphenyl)(6-((1-methylpiperidin-4-yl)oxy)-8-((tetrahydrofuran-3-yl)amino)-3,4-dihydroisoquinolin-2(1H)-yl)methanone]: < 1000 nM and < 1000 nM.
The matching figures for `N#Cc1cccc2c1CN(C(=O)c1c(O)cc(O)cc1OCc1ccccc1)C2` [Example 91, 2-(2-(Benzyloxy)-4,6-dihydroxybenzoyl)isoindoline-4-carbonitrile]: 1000 to 10000 nM and < 1000 nM.
The matching figures for `CN1CC(Nc2cccc3c2CN(C(=O)c2c(O)cc(O)cc2OCc2ccccc2)CC3)CCC1=O` (centres unmarked) [Example 70, 5-((2-(2-(Benzyloxy)-4,6-dihydroxybenzoyl)-1,2,3,4-tetrahydroisoquinolin-8-yl)amino)-1-methylpiperidin-2-one]: < 1000 nM and > 10000 nM.
For the compound `CC(C)(C)OC(=O)NCCCCCN1CCN(Cc2ccc3c(c2)CN(C(=O)c2c(O)cc(O)cc2OCc2ccccc2)C3)CC1` [Example 103, t-Butyl (5-(4-((2-(2-(benzyloxy)-4,6-dihydroxybenzoyl)isoindolin-5-yl)methyl)piperazin-1-yl)pentyl)carbamate], the IC50 in assay [1] and in assay [2] was < 1000 nM in each case.
Consider `CC(=O)N1CCC[C@@H](Nc2cccc3c2CN(C(=O)c2c(O)cc(O)cc2OCc2ccccc2)CC3)C1` [Example 68, (R)-1-(3-((2-(2-(benzyloxy)-4,6-dihydroxybenzoyl)-1,2,3,4-tetrahydroisoquinolin-8-yl)amino)piperidin-1-yl)ethan-1-one], for which the IC50 is < 1000 nM in assay [1] and > 10000 nM in assay [2].
Take `O=C(c1c(O)cc(O)cc1OCc1ccccc1)N1Cc2cccc(N[C@H]3CCOC3)c2C1` [Example 22, (S)-(2-(Benzyloxy)-4,6-dihydroxyphenyl)(4-((tetrahydrofuran-3-yl)amino)isoindolin-2-yl)methanone]: the IC50 in assay [1] and in assay [2] was < 1000 nM in each case.
